Where a SMILES comes first, the peptide text is derived from it. Bridges are numbered along the chain shown (N, C = ends). [ ]: non-standard residue; d: D form. The star is where a group is joined. hPhe(3-Cl-4-CF3) = N[C@@H](CCc1ccc(C(F)(F)F)c(Cl)c1)C(=O)O; NPrPhe(4-CF3) = CCCN[C@@H](Cc1ccc(C(F)(F)F)cc1)C(=O)O; Piperazinyl(4-(3-oxetanyl)) = C1OCC1N1CCN(*)CC1; 3Oxa8azabicyclo(3.2.1)octane = C1CC2COCC1N2*; NMeAbu(4,4,4-F3) = CN[C@@H](CC(F)(F)F)C(=O)O; NMeGly(cPent) = CN[C@H](C(=O)O)C1CCCC1; NMeGly(cBu) = CN[C@H](C(=O)O)C1CCC1; Piperidide(4-Me) = CC1CCN(*)CC1; NMeD = CN[C@@H](CC(=O)O)C(=O)O; NMeL = CN[C@@H](CC(C)C)C(=O)O; Oxazolidin(3-yl) = C1CN(*)CO1; NMeNva = CCC[C@H](NC)C(=O)O; Azetidin(1-yl) = C1CN(*)C1; NMeAbu = CC[C@H](NC)C(=O)O; Morpholide = C1CN(*)CCO1; NMeA = CN[C@@H](C)C(=O)O; Ac5c = NC1(C(=O)O)CCCC1; Aze = O=C(O)[C@@H]1CCN1; X25 = CC1(C)CCN(*)C1; Sar = CNCC(=O)O
Experiments:
[1] = biological target: GDP-bound NRAS wild-type protein (Homo sapiens, UniProt P01111); assay: Binding to NRAS by surface plasmon resonance (SPR), Single Cycle Kinetics; conditions: KD ratio NRAS/KRAS, SPR
[2] = biological target: GDP-bound HRAS wild-type protein (Homo sapiens, UniProt P01112); assay: Binding to HRAS by surface plasmon resonance (SPR), Single Cycle Kinetics; conditions: KD ratio HRAS/KRAS, SPR
GDP-bound HRAS wild-type protein, sequence (P01112 whole entry): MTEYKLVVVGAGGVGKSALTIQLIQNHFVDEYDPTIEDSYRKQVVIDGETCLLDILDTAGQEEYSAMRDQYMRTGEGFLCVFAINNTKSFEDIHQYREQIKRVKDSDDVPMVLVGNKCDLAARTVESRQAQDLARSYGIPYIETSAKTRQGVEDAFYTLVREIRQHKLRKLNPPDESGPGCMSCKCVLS

GDP-bound NRAS wild-type protein, sequence (P01111 whole entry): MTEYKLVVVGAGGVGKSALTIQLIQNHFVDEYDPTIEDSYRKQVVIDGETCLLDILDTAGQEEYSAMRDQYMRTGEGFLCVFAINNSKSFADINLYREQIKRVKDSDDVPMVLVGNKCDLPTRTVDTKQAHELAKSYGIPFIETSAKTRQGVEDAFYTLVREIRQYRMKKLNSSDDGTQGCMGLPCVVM

| Structure (SMILES) | NRAS/KRAS (ratio of KD for GDP-bound NRAS wild-type to KD for KRAS) [1] | HRAS/KRAS (ratio of KD for GDP-bound HRAS wild-type to KD for KRAS) [2] |
| --- | --- | --- |
| CCCN1C(=O)[C@@H]2CCN2C(=O)[C@H](C)N(C)C(=O)[C@H]([C@@H](C)CC)NC(=O)[C@H](CC(C)C)N(C)C(=O)C[C@@H](C(=O)N2CCC2)N(C)C(=O)[C@H](C2CCCC2)N(C)C(=O)C2(CCCC2)NC(=O)[C@@H]2CCCN2C(=O)[C@H](CCc2ccc(C(F)(F)F)c(Cl)c2)NC(=O)CN(C)C(=O)[C@@H]1Cc1ccc(C(F)(F)F)cc1 [PP0181] ([NMeL]I[NMeA][Aze][NPrPhe(4-CF3)][Sar][hPhe(3-Cl-4-CF3)]P[Ac5c][NMeGly(cPent)][NMeD]-{Azetidin(1-yl)}; lactam N-11) | C (A compound having a KD ratio of 0.1 or more and less than 3 is denoted as C) | B (a compound having 3 or more and less than 10 is denoted as B) |
| CCCN1C(=O)[C@@H]2CCN2C(=O)[C@H](C)N(C)C(=O)[C@H]([C@@H](C)CC)NC(=O)[C@H](CC(C)C)N(C)C(=O)C[C@@H](C(=O)N2C3CCC2COC3)N(C)C(=O)[C@H](C2CCCC2)N(C)C(=O)C2(CCCC2)NC(=O)[C@@H]2CCCN2C(=O)[C@H](CCc2ccc(C(F)(F)F)c(Cl)c2)NC(=O)CN(C)C(=O)[C@@H]1Cc1ccc(C(F)(F)F)cc1 [PP0182] ([NMeL]I[NMeA][Aze][NPrPhe(4-CF3)][Sar][hPhe(3-Cl-4-CF3)]P[Ac5c][NMeGly(cPent)][NMeD]-{3Oxa8azabicyclo(3.2.1)octane}; lactam N-11) | C (A compound having a KD ratio of 0.1 or more and less than 3 is denoted as C) | B (a compound having 3 or more and less than 10 is denoted as B) |
| CCCN1C(=O)[C@@H]2CCN2C(=O)[C@H](C)N(C)C(=O)[C@H]([C@@H](C)CC)NC(=O)[C@H](CC(C)C)N(C)C(=O)C[C@@H](C(=O)N2CCOC2)N(C)C(=O)[C@H](C2CCCC2)N(C)C(=O)C2(CCCC2)NC(=O)[C@@H]2CCCN2C(=O)[C@H](CCc2ccc(C(F)(F)F)c(Cl)c2)NC(=O)CN(C)C(=O)[C@@H]1Cc1ccc(C(F)(F)F)cc1 [PP0183] ([NMeL]I[NMeA][Aze][NPrPhe(4-CF3)][Sar][hPhe(3-Cl-4-CF3)]P[Ac5c][NMeGly(cPent)][NMeD]-{Oxazolidin(3-yl)}; lactam N-11) | C (A compound having a KD ratio of 0.1 or more and less than 3 is denoted as C) | B (a compound having 3 or more and less than 10 is denoted as B) |
| CCCN1C(=O)[C@@H]2CCN2C(=O)[C@H](C)N(C)C(=O)[C@H]([C@@H](C)CC)NC(=O)[C@H](CC(C)C)N(C)C(=O)C[C@@H](C(=O)N2CCN(C3COC3)CC2)N(C)C(=O)[C@H](C2CCCC2)N(C)C(=O)C2(CCCC2)NC(=O)[C@@H]2CCCN2C(=O)[C@H](CCc2ccc(C(F)(F)F)c(Cl)c2)NC(=O)CN(C)C(=O)[C@@H]1Cc1ccc(C(F)(F)F)cc1 [PP0184] ([NMeL]I[NMeA][Aze][NPrPhe(4-CF3)][Sar][hPhe(3-Cl-4-CF3)]P[Ac5c][NMeGly(cPent)][NMeD]-{Piperazinyl(4-(3-oxetanyl))}; lactam N-11) | C (A compound having a KD ratio of 0.1 or more and less than 3 is denoted as C) | B (a compound having 3 or more and less than 10 is denoted as B) |
| CCCN1C(=O)[C@@H]2CCN2C(=O)[C@H](C)N(C)C(=O)[C@H]([C@@H](C)CC)NC(=O)[C@H](CC(C)C)N(C)C(=O)C[C@@H](C(=O)N2CCC(C)CC2)N(C)C(=O)[C@H](C2CCCC2)N(C)C(=O)C2(CCCC2)NC(=O)[C@@H]2CCCN2C(=O)[C@H](CCc2ccc(C(F)(F)F)c(Cl)c2)NC(=O)CN(C)C(=O)[C@@H]1Cc1ccc(C(F)(F)F)cc1 [PP0185] ([NMeL]I[NMeA][Aze][NPrPhe(4-CF3)][Sar][hPhe(3-Cl-4-CF3)]P[Ac5c][NMeGly(cPent)][NMeD]-{Piperidide(4-Me)}; lactam N-11) | C (A compound having a KD ratio of 0.1 or more and less than 3 is denoted as C) | B (a compound having 3 or more and less than 10 is denoted as B) |
| CCCN1C(=O)[C@@H]2CCN2C(=O)[C@H](C)N(C)C(=O)[C@H]([C@@H](C)CC)NC(=O)[C@H](CC(C)C)N(C)C(=O)C[C@@H](C(=O)N2CCC(C)(C)C2)N(C)C(=O)[C@H](C2CCCC2)N(C)C(=O)C2(CCCC2)NC(=O)[C@@H]2CCCN2C(=O)[C@H](CCc2ccc(C(F)(F)F)c(Cl)c2)NC(=O)CN(C)C(=O)[C@@H]1Cc1ccc(C(F)(F)F)cc1 [PP0186] ([NMeL]I[NMeA][Aze][NPrPhe(4-CF3)][Sar][hPhe(3-Cl-4-CF3)]P[Ac5c][NMeGly(cPent)][NMeD]-X25; lactam N-11) | C (A compound having a KD ratio of 0.1 or more and less than 3 is denoted as C) | B (a compound having 3 or more and less than 10 is denoted as B) |
| CCCN1C(=O)CN(C)C(=O)CN(C)C(=O)[C@H]([C@@H](C)CC)NC(=O)[C@H](CC(F)(F)F)N(C)C(=O)C[C@@H](C(=O)N2CCOCC2)N(C)C(=O)[C@H](C2CCCC2)N(C)C(=O)C2(CCCC2)NC(=O)[C@@H]2CCCN2C(=O)[C@H](CCc2ccc(C(F)(F)F)c(Cl)c2)NC(=O)CN(C)C(=O)[C@@H]1Cc1ccc(C(F)(F)F)cc1 [PP0187] ([NMeAbu(4,4,4-F3)]I[Sar][Sar][NPrPhe(4-CF3)][Sar][hPhe(3-Cl-4-CF3)]P[Ac5c][NMeGly(cPent)][NMeD]-Morpholide; lactam N-11) | B (a compound having 3 or more and less than 10 is denoted as B) | C (A compound having a KD ratio of 0.1 or more and less than 3 is denoted as C) |
| CCCN1C(=O)CN(C)C(=O)CN(C)C(=O)[C@H]([C@@H](C)CC)NC(=O)[C@H](C2CCC2)N(C)C(=O)C[C@@H](C(=O)N2CCOCC2)N(C)C(=O)[C@H](C2CCCC2)N(C)C(=O)C2(CCCC2)NC(=O)[C@@H]2CCCN2C(=O)[C@H](CCc2ccc(C(F)(F)F)c(Cl)c2)NC(=O)CN(C)C(=O)[C@@H]1Cc1ccc(C(F)(F)F)cc1 [PP0188] ([NMeGly(cBu)]I[Sar][Sar][NPrPhe(4-CF3)][Sar][hPhe(3-Cl-4-CF3)]P[Ac5c][NMeGly(cPent)][NMeD]-Morpholide; lactam N-11) | B (a compound having 3 or more and less than 10 is denoted as B) | C (A compound having a KD ratio of 0.1 or more and less than 3 is denoted as C) |
| CCC[C@H]1C(=O)N[C@@H]([C@@H](C)CC)C(=O)N(C)CC(=O)N(C)CC(=O)N(CCC)[C@@H](Cc2ccc(C(F)(F)F)cc2)C(=O)N(C)CC(=O)N[C@@H](CCc2ccc(C(F)(F)F)c(Cl)c2)C(=O)N2CCC[C@H]2C(=O)NC2(CCCC2)C(=O)N(C)[C@@H](C2CCCC2)C(=O)N(C)[C@H](C(=O)N2CCOCC2)CC(=O)N1C [PP0189] ([NMeNva]I[Sar][Sar][NPrPhe(4-CF3)][Sar][hPhe(3-Cl-4-CF3)]P[Ac5c][NMeGly(cPent)][NMeD]-Morpholide; lactam N-11) | B (a compound having 3 or more and less than 10 is denoted as B) | C (A compound having a KD ratio of 0.1 or more and less than 3 is denoted as C) |
| CCCN1C(=O)CN(C)C(=O)CN(C)C(=O)[C@H]([C@@H](C)CC)NC(=O)[C@H](CC)N(C)C(=O)C[C@@H](C(=O)N2CCOCC2)N(C)C(=O)[C@H](C2CCCC2)N(C)C(=O)C2(CCCC2)NC(=O)[C@@H]2CCCN2C(=O)[C@H](CCc2ccc(C(F)(F)F)c(Cl)c2)NC(=O)CN(C)C(=O)[C@@H]1Cc1ccc(C(F)(F)F)cc1 [PP0190] ([NMeAbu]I[Sar][Sar][NPrPhe(4-CF3)][Sar][hPhe(3-Cl-4-CF3)]P[Ac5c][NMeGly(cPent)][NMeD]-Morpholide; lactam N-11) | B (a compound having 3 or more and less than 10 is denoted as B) | B (a compound having 3 or more and less than 10 is denoted as B) |
| CCCN1C(=O)[C@@H]2CCN2C(=O)[C@H](C)N(C)C(=O)[C@H]([C@@H](C)CC)NC(=O)[C@H](CC(F)(F)F)N(C)C(=O)C[C@@H](C(=O)N2CCOCC2)N(C)C(=O)[C@H](C2CCCC2)N(C)C(=O)C2(CCCC2)NC(=O)[C@@H]2CCCN2C(=O)[C@H](CCc2ccc(C(F)(F)F)c(Cl)c2)NC(=O)CN(C)C(=O)[C@@H]1Cc1ccc(C(F)(F)F)cc1 [PP0191] ([NMeAbu(4,4,4-F3)]I[NMeA][Aze][NPrPhe(4-CF3)][Sar][hPhe(3-Cl-4-CF3)]P[Ac5c][NMeGly(cPent)][NMeD]-Morpholide; lactam N-11) | C (A compound having a KD ratio of 0.1 or more and less than 3 is denoted as C) | B (a compound having 3 or more and less than 10 is denoted as B) |
| CCCN1C(=O)[C@@H]2CCN2C(=O)[C@H](C)N(C)C(=O)[C@H]([C@@H](C)CC)NC(=O)[C@H](C2CCC2)N(C)C(=O)C[C@@H](C(=O)N2CCOCC2)N(C)C(=O)[C@H](C2CCCC2)N(C)C(=O)C2(CCCC2)NC(=O)[C@@H]2CCCN2C(=O)[C@H](CCc2ccc(C(F)(F)F)c(Cl)c2)NC(=O)CN(C)C(=O)[C@@H]1Cc1ccc(C(F)(F)F)cc1 [PP0192] ([NMeGly(cBu)]I[NMeA][Aze][NPrPhe(4-CF3)][Sar][hPhe(3-Cl-4-CF3)]P[Ac5c][NMeGly(cPent)][NMeD]-Morpholide; lactam N-11) | C (A compound having a KD ratio of 0.1 or more and less than 3 is denoted as C) | B (a compound having 3 or more and less than 10 is denoted as B) |
| CCC[C@H]1C(=O)N[C@@H]([C@@H](C)CC)C(=O)N(C)[C@@H](C)C(=O)N2CC[C@H]2C(=O)N(CCC)[C@@H](Cc2ccc(C(F)(F)F)cc2)C(=O)N(C)CC(=O)N[C@@H](CCc2ccc(C(F)(F)F)c(Cl)c2)C(=O)N2CCC[C@H]2C(=O)NC2(CCCC2)C(=O)N(C)[C@@H](C2CCCC2)C(=O)N(C)[C@H](C(=O)N2CCOCC2)CC(=O)N1C [PP0193] ([NMeNva]I[NMeA][Aze][NPrPhe(4-CF3)][Sar][hPhe(3-Cl-4-CF3)]P[Ac5c][NMeGly(cPent)][NMeD]-Morpholide; lactam N-11) | C (A compound having a KD ratio of 0.1 or more and less than 3 is denoted as C) | C (A compound having a KD ratio of 0.1 or more and less than 3 is denoted as C) |

From patent US20250230193A1, “CYCLIC COMPOUND HAVING SELECTIVE KRAS INHIBITORY EFFECT ON HRAS AND NRAS” (CHUGAI SEIYAKU KABUSHIKI KAISHA, priority 2022, published 2025)
